60 compounds from patent US20150004134A1, “TREATMENT OF CANCER WITH HETEROCYCLIC INHIBITORS OF GLUTAMINASE” (Calithera Biosciences, Inc., priority 2012, published 2015) can be followed below.

The test system of one test is P493-6 (myc "on") cells. Nature of the test: Cell Proliferation Assay. It is filed as cell-based. To be noted: P493-6, 72 h, read-out: Cell prolif P493 72 h IC50, P493-6 cells, 72 h. The gist of the method:
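Read-out: either Cell Titer Glo or Guava Viacount flow analysis after 72 h compound treatment of myc-on P493-6 cells (10,000/well, RPMI with 10% FBS) at 37 °C. DMSO held at 0.5% final.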
Consider `CC(C(=O)Nc1ccc(CCCCc2nnc(NC(=O)C(O)c3cccc(Cl)c3)s2)nn1)c1ccccc1` (stereo not drawn) [Compound 468], for which the half-inhibitory concentration (IC50) (commonly the concentration that gives 50% inhibition) was determined as 0.27 µM.
With `CN(C)C(=O)Cc1cccc(CC(=O)Nc2nnc(CCCCc3ccc(NC(=O)Cc4ccccc4)nn3)s2)c1` [Compound 472], the half-inhibitory concentration (IC50) was 0.024 µM.
In the case of `O=C(Cc1ccccc1)Nc1ccc(CCCCc2nnc(NC(=O)Cc3cccc(CC(=O)N4CCC(F)(F)CC4)c3)s2)nn1` [Compound 474], the IC50 worked out at 0.004 µM.
Same read-out and setting: next, `O=C(Cc1ccccc1)Nc1ccc(CCCCc2nnc(NC(=O)Cc3cccc(CN4CCCCC4=O)c3)s2)nn1` [Compound 476]: 0.012 µM.
Same read-out and setting: the figure for `C[C@@](O)(C(=O)NCc1cccc(CC(=O)Nc2nnc(CCCCc3ccc(NC(=O)Cc4ccccc4)nn3)s2)c1)C(F)(F)F` [Compound 477] is 0.015 µM; for `CN(C)CC(=O)Nc1ccc(CCCCc2nnc(NC(=O)Cc3cccc(CNC(=O)OC(C)(C)C)c3)s2)nn1` [Compound 478] it is 0.046 µM; for `O=C(Cc1ccccc1)Nc1ccc(CCCCc2nnc(NC(=O)Cc3cccc(CN4CCCC4=O)c3)s2)nn1` [Compound 479] it is 0.03 µM.
In the case of `O=C(Cc1ccccc1)Nc1ccc(CCCCc2nnc(NC(=O)Cc3cccc(OCc4ccccn4)c3)s2)nn1` [Compound 480], the half-inhibitory concentration (IC50) was 6.3 µM.
Regarding `CC(C(=O)Nc1nnc(CCCCc2ccc(NC(=O)Cc3cccc(CNC(=O)OC(C)(C)C)c3)nn2)s1)c1ccccc1` (stereo not drawn) [Compound 489], the half-inhibitory concentration (IC50) is 0.023 µM.
The same measure, in the same setting: next, `CC(=O)Nc1nnc(CCCCc2ccc(NC(=O)Cc3cccc(CNC(=O)OC(C)(C)C)c3)nn2)s1` [Compound 491]: 0.023 µM; `CC(C)(C)OC(=O)NCc1cc(CC(=O)Nc2nnc(CCCCc3ccc(NC(=O)Cc4ccccc4)nn3)s2)ccc1F` [Compound 492]: 0.014 µM; `CC(C)(C)OC(=O)N1CCN(Cc2cc(CC(=O)Nc3nnc(CCCCc4ccc(NC(=O)Cc5ccccc5)nn4)s3)ccc2F)CC1` [Compound 493]: 0.057 µM.
With `O=C(Cc1ccccc1)Nc1ccc(CCCCc2nnc(NC(=O)Cc3ccc(F)c(CN4CCNCC4)c3)s2)nn1` [Compound 494], the IC50 amounted to 0.58 µM.
Same read-out and setting: the figure for `CCCCNC(=O)Cc1cccc(CC(=O)Nc2nnc(CCCCc3ccc(NC(=O)Cc4ccccc4)nn3)s2)c1` [Compound 496] is 0.017 µM.
On the same count and under the same terms, the figure for `O=C(Cc1ccccc1)Nc1ccc(CCCCc2nnc(NC(=O)C(O)c3ccc(-c4ccccc4)cc3OCCO)s2)nn1` (stereo not drawn) [Compound 504] is 0.12 µM; for `CC(C)(C)OC(=O)NCc1cccc(CC(=O)Nc2nnc(CCCCc3ccc(NC(=O)C(O)(CO)c4ccccc4)nn3)s2)c1` (stereo not drawn) [Compound 507] it is 0.041 µM; for `COC(C(=O)Nc1ccc(CCCCc2nnc(NC(=O)Cc3cccc(CNC(=O)OC(C)(C)C)c3)s2)nn1)c1ccccc1` (stereo not drawn) [Compound 508] it is 0.02 µM.
As to `COC(C(=O)Nc1nnc(CCCCc2ccc(NC(=O)Cc3cccc(CNC(=O)OC(C)(C)C)c3)nn2)s1)c1ccccc1` (stereo not drawn) [Compound 509], the IC50 came out at 0.009 µM.
The same measure, in the same setting: the figure for `O=C(Cc1ccccc1)Nc1ccc(CCCCc2nnc(NC(=O)CC3=CN4CCCN=C4S3)s2)nn1` [Compound 511] is 1.1 µM; for `O=C(Cc1ccccc1)Nc1ccc(CCCCc2nnc(NC(=O)Cc3cccc4[nH]ncc34)s2)nn1` [Compound 512] it is 0.046 µM.
Take `COc1cc(CC(=O)Nc2nnc(CCCCc3ccc(NC(=O)Cc4ccccc4)nn3)s2)ccc1F` [Compound 515]: the IC50 was determined as 0.059 µM.
Still for that read-out and setting: the figure for `CC(=O)N1CCN(Cc2cc(CC(=O)Nc3nnc(CCCCc4ccc(NC(=O)Cc5ccccc5)nn4)s3)ccc2F)CC1` [Compound 528] is 0.044 µM; for `CC(C)(C)OC(=O)NCc1cccc(CC(=O)Nc2nnc(CCCCc3ccc(NC(=O)C4(C)COC(C)(C)OC4)nn3)s2)c1` [Compound 529] it is 0.16 µM.
As to `COc1ccccc1CC(=O)Nc1nnc(CCCCc2ccc(NC(=O)Cc3ccccc3Cl)nn2)s1` [Compound 531], the IC50 worked out at 0.042 µM.
On the same count and under the same terms, the figure for `O=C(Cc1ccccc1F)Nc1ccc(CCCCc2nnc(NC(=O)Cc3ccccc3F)s2)nn1` [Compound 534] is 0.044 µM.
For the compound `Cc1ccccc1CC(=O)Nc1nnc(CCCCc2ccc(NC(=O)Cc3ccccc3Cl)nn2)s1` [Compound 535], the IC50 was found to be 0.09 µM.
Still for that read-out and setting: the figure for `Cc1ccccc1CC(=O)Nc1nnc(CCCCc2ccc(NC(=O)Cc3ccccc3F)nn2)s1` [Compound 536] is 0.071 µM; for `COc1cc(CC(=O)Nc2ccc(CCCCc3nnc(NC(=O)Cc4ccccc4)s3)nn2)ccc1F` [Compound 537] it is 0.076 µM; for `CC(NC(=O)OC(C)(C)C)c1cccc(CC(=O)Nc2nnc(CCCCc3ccc(NC(=O)Cc4ccccc4)nn3)s2)c1` (stereo not drawn) [Compound 541] it is 0.006 µM.
As to `O=C(Cc1ccccc1)Nc1ccc(CCCCc2nnc(NC(=O)Cc3cccc(Cl)c3F)s2)nn1` [Compound 545], the IC50 worked out at 0.046 µM.
Still for that read-out and setting: next, `CCOc1ccc(CC(=O)Nc2nnc(CCCCc3ccc(NC(=O)Cc4ccccc4)nn3)s2)cc1OC` [Compound 547]: 0.031 µM.
Still for that read-out and setting: next, `CCCC(=O)OCN(C(=O)Cc1cccc(CNC(=O)OC(C)(C)C)c1)c1nnc(CCCCc2ccc(NC(=O)Cc3ccccc3)nn2)s1` [Compound 552]: 0.005 µM; `COc1cc(CC(=O)Nc2nnc(CCCCc3ccc(NC(=O)Cc4ccccc4)nn3)s2)ccc1O` [Compound 554]: 0.172 µM.
The same measure, in the same setting: next, `CC(C)Cc1ccc(C(C)C(=O)Nc2nnc(CCCCc3ccc(NC(=O)Cc4ccccc4)nn3)s2)cc1` (stereo not drawn) [Compound 557]: 0.12 µM; `CCCOc1ccc(C(O)C(=O)Nc2nnc(CCCCc3ccc(NC(=O)Cc4ccccc4)nn3)s2)cc1` (stereo not drawn) [Compound 558]: 0.028 µM.
For `CC(N)c1cccc(CC(=O)Nc2ccc(CCCCc3nnc(NC(=O)Cc4ccccc4)s3)nn2)c1` (stereo not drawn) [Compound 560], the IC50 came to 0.037 µM.
Regarding `O=C(Cc1ccccc1F)Nc1ccc(CCCCc2nnc(NC(=O)Cc3ccccc3Cl)s2)nn1` [Compound 566], the IC50 is 0.015 µM.
Same read-out and setting: next, `CCCC(=O)OCN(C(=O)C(CO)c1cccc(CNC(=O)OC(C)(C)C)c1)c1nnc(CCCCc2ccc(NC(=O)Cc3ccccc3)nn2)s1` (stereo not drawn) [Compound 567]: 0.021 µM; `CC(C(=O)Nc1nnc(CCCCc2ccc(NC(=O)Cc3ccccc3)nn2)s1)c1ccc(F)c(CNC(=O)OC(C)(C)C)c1` (stereo not drawn) [Compound 568]: 0.028 µM.
Still for that read-out and setting: the figure for `CN(Cc1cc(CC(=O)Nc2nnc(CCCCc3ccc(NC(=O)Cc4ccccc4)nn3)s2)ccc1F)C(=O)OC(C)(C)C` [Compound 569] is 0.011 µM; for `CCCC(=O)OCN(C(=O)Cc1cccc(CC(=O)N2CCC(F)(F)CC2)c1)c1nnc(CCCCc2ccc(NC(=O)Cc3ccccc3)nn2)s1` [Compound 570] it is 0.009 µM.
For `CC(C)(C)OC(=O)NCc1cccc(CC(=O)Nc2ccc(CCCCc3nnc(NC(=O)Cc4cccc(CNC(=O)OC(C)(C)C)c4)s3)nn2)c1` [Compound 571], the half-inhibitory concentration (IC50) was 0.01 µM.
On to `CCOC(=O)NCc1cccc(CC(=O)Nc2ccc(CCCCc3nnc(NC(=O)Cc4cccc(CNC(=O)OCC)c4)s3)nn2)c1` [Compound 572], for which the half-inhibitory concentration (IC50) turned out to be 0.004 µM.
Take `CCOC(=O)NCc1cc(C(C)C(=O)Nc2nnc(CCCCc3ccc(NC(=O)Cc4ccccc4)nn3)s2)ccc1F` (stereo not drawn) [Compound 574]: the half-maximal inhibitory concentration (IC50) was 0.028 µM.
Still for that read-out and setting: next, `COc1ccc(CC(=O)Nc2nnc(CCCCc3ccc(NC(=O)Cc4ccccc4)nn3)s2)cc1O` [Compound 582]: 0.046 µM; `Nc1ccc(CCCCc2nnc(NC(=O)Cc3cccc(OC(F)(F)F)c3)s2)nn1` [Compound 584]: 1.4 µM; `COC(=O)NC(C)c1cccc(CC(=O)Nc2ccc(CCCCc3nnc(NC(=O)Cc4ccccc4)s3)nn2)c1` (stereo not drawn) [Compound 589]: 0.025 µM.
The same measure, in the same setting: next, `CC(C(=O)Nc1nnc(CCCCc2ccc(NC(=O)Cc3cccc(CNC(=O)OCCF)c3)nn2)s1)c1ccccc1` (stereo not drawn) [Compound 591]: 0.033 µM.
On the same count and under the same terms, next, `CC(C)NC(=O)OC(C)c1cccc(CC(=O)Nc2nnc(CCCCc3ccc(NC(=O)Cc4ccccc4)nn3)s2)c1` (stereo not drawn) [Compound 598]: 0.004 µM; `CC(C(=O)Nc1ccc(CCCCc2nnc(NC(=O)Cc3ccccc3)s2)nn1)c1ccc(F)c(CN(C)C(=O)OC(C)(C)C)c1` (stereo not drawn) [Compound 599]: 0.039 µM.
Take `CC(NC(=O)OC(C)(C)C)c1cccc(CC(=O)Nc2ccc(CCCCc3nnc(NC(=O)C(C)c4ccccc4)s3)nn2)c1` (stereo not drawn) [Compound 603]: the IC50 came out at 0.023 µM.
The same measure, in the same setting: the figure for `COC(C(=O)Nc1nnc(CCCCc2ccc(NC(=O)Cc3cccc(CNC(=O)CC(O)C(F)(F)F)c3)nn2)s1)c1ccccc1` (stereo not drawn) [Compound 604] is 0.042 µM; for `COC(C(=O)Nc1nnc(CCCCc2ccc(NC(=O)Cc3cccc(CNC(=O)CC(C)(O)C(F)(F)F)c3)nn2)s1)c1ccccc1` (stereo not drawn) [Compound 605] it is 0.018 µM.
The same measure, in the same setting: next, `CC(C(=O)Nc1nnc(CCCCc2ccc(NC(=O)Cc3cccc(CNC(=O)CC(O)C(F)(F)F)c3)nn2)s1)c1ccccc1` (stereo not drawn) [Compound 606]: 0.045 µM; `CC(C(=O)Nc1nnc(CCCCc2ccc(NC(=O)Cc3cccc(CNC(=O)CC(C)(O)C(F)(F)F)c3)nn2)s1)c1ccccc1` (stereo not drawn) [Compound 607]: 0.047 µM.
The same measure, in the same setting: the figure for `CCNC(=O)OC(C)c1cccc(CC(=O)Nc2ccc(CCCCc3nnc(NC(=O)Cc4ccccc4)s3)nn2)c1` (stereo not drawn) [Compound 610] is 0.011 µM; for `CC(O)c1cccc(CC(=O)Nc2ccc(CCCCc3nnc(NC(=O)Cc4ccccc4)s3)nn2)c1` (stereo not drawn) [Compound 611] it is 0.04 µM.
Turning to `CC(C(=O)Nc1ccc(CCCCc2nnc(NC(=O)C(C)c3ccccc3)s2)nn1)c1ccccc1` (stereo not drawn) [Compound 613], the IC50 worked out at 0.45 µM.
On the same count and under the same terms, the figure for `CS(=O)(=O)CCCOc1cccc(CC(=O)Nc2ccc(CCCCc3nnc(NC(=O)Cc4ccccc4)s3)nn2)c1` [Compound 623] is 0.026 µM.

Staying with this test, now noted: P493-6, 72 h, read-out: Cell prolif P493 72 h IC50, P493 cells, 72 h.
Regarding `O=C(Cc1ccccc1)Nc1nnc(CCCCc2nnc(NC(=O)C(O)c3cccc(Cl)c3)s2)s1` (stereo not drawn) [Compound 527], the IC50 came out at 0.098 µM.
